Literature values, collected in publication PMC10656230, “Disruption of the productive encounter complex results in dysregulation of DIAPH1 activity” (The Journal of Biological Chemistry, 2023).

Assays:
DID = conditions: DAD without RRKR motif vs
Source text: Chemical shifts (δ) and cross peak intensities (I) were monitored by using heteronuclear single–quantum coherence (^1H-^15N HSQC) NMR spectroscopy ([38]) (Fig. S1A). […] Negligible perturbations occurred beyond a 1:1 mole ratio, indicating a 1:1 stoichiometry for the complex. […] H ...

DID E273K = conditions: DID mutation E273K, no 2- to 3-fold decrease
Source text: (§1) Our findings identify E326 and E327 as critical for binding (Figs. 3D, 4 and S1). The E326 and E327 acidic patch is located greater than 30 Å away from the Rho GTPase binding site and represents a new surface for DIAPH1 regulation (Fig. S4B) ([25]). Interruption of the electrostatic interaction between the basic RRKR motif an ...

DID R278E = conditions: DID mutation R278E, no 2- to 3-fold decrease
Source text: as §1

DETGVMDSLLEALQSGAAFRRKRGPRQAN [DAD]
decrease in DID-DAD binding affinity on removal of the RRKR motif of DAD (DID): 5 fold | decrease in DID-DAD binding affinity (DID E273K): did not | decrease in DID-DAD binding affinity (DID R278E): did not
